Test results as given in patent publication US20140093499A1, “PHARMACEUTICAL COMBINATIONS COMPRISING DUAL ANGIOPOIETIN-2 / DLL4 BINDERS AND ANTI-VEGF AGENTS” (BOEHRINGER INGELHEIM INTERNATIONAL GMBH, priority 2012, published 2014).

Legend:
[1] = system: human non-small cell lung cancer (NCl-H1975) xenografts; assay: NCl-H1975 subcutaneous xenograft efficacy in nude mice; format: in vivo; conditions: NCl-H1975, day 1 to day 14; Bevacizumab 25 mg/kg twice weekly i.p., BIBF 1120 50 mg/kg daily p.o., BI-1 13.6 mg/kg twice weekly i.p.
Protocol: The goal of the present study was to assess the efficacy of BI-1 in combination with Bevacizumab and BIBF 1120 in a model of human non small cell lung cancer (NCl-H1975) in nude mice.
• Model: Subcutaneous xenografts of the human non-small cell lung cancer (NCl-H1975) growing in nude mice
To establish subcutaneous tumors, NCl-H1975 cells were harvested by centrifugation, washed and resuspended in PBS+5% FCS at 5×10^7 cells/ml. 100 μl cell suspension containing 5×10^6 cells was then injected subcutaneously into the right flank of the mice (1 site per mouse). Mice were randomly distributed between the treatment and the vehicle control group (7 days after cell injection) when tumors were well established and had reached volumes of 63 to 104 mm3.
The doses of BI-1 and Bevacizumab were calculated to the average body weight of all mice on day 1 (28 g) and administered intraperitoneally twice weekly in a volume of 100 μl per mouse. BIBF 1120 was dosed according to the body weight (mg/kg) and administered daily perorally.
Tumor diameters were measured three times a week (Monday, Wednesday and Friday) with a caliper. The volume of each tumor [in mm3] was calculated according to the formula “tumor volume=length*diameter2*π/6.” To monitor side effects of treatment, mice were inspected daily for abnormalities and body weight was determined three times a week (Monday, Wednesday and Friday). […]

[2] = system: CXF 243 colon cancer xenograft; assay: CXF 243 patient-derived tumor xenograft efficacy in nude mice; format: in vivo, human; conditions: BI-1 13.6 mg/kg twice weekly i.p., BIBF1120 50 mg/kg once daily p.o., Bevacizumab 15 mg/kg twice weekly i.p.
Description: (§1) The goal of the present study was to assess the efficacy of BI-1 in combination with Bevacizumab, BIBF1120 or Sunitinib in models of human non small cell lung cancer (LXFE 211, LXFE 1422), colon cancer (CXF 243), mammary cancer (MAXF 401), ovarian cancer (OVXF 1353), pancreatic cancer (PAXF 546) and renal cancer (RXF 1220) in nude mice. All models were patient-derived tumor xenografts (PDX), which were transplanted from patients to nude mice and passaged subcutaneously. These models retain most of the characteristics of the parental patient tumors including histology.
(§2) Tumor fragments were obtained from tumor xenografts in serial passage in nude mice. After removal from donor mice, tumors were cut into fragments (4-5 mm diameter) and placed in PBS until subcutaneous implantation. Recipient mice were anesthetized by inhalation of isoflurane. […] Mice were monitored daily. […]
(§3) The doses of BI-1 and Bevacizumab were calculated to the average body weight of all mice on day 1 (28 g) and administered intraperitoneally twice weekly in a volume of 100 μl per mouse. […]
(§4) Tumor diameters were measured twice weekly with a caliper. The volume of each tumor [in mm^3] was calculated according to the formula “tumor volume=length*diameter^2*0.5.” To monitor side effects of treatment, mice were inspected daily for abnormalities and body weight was determined twice weekly. […]

[3] = system: LXFE 211 non small cell lung cancer xenograft; assay: LXFE 211 patient-derived tumor xenograft efficacy in nude mice; format: in vivo, human; conditions: BI-1 13.6 mg/kg twice weekly i.p., BIBF1120 50 mg/kg once daily p.o., Bevacizumab 15 mg/kg twice weekly i.p.
Description: as §1, §2, §3, §4

[4] = system: LXFE 1422 non small cell lung cancer xenograft; assay: LXFE 1422 patient-derived tumor xenograft efficacy in nude mice; format: in vivo, human; conditions: BI-1 13.6 mg/kg twice weekly i.p., BIBF1120 50 mg/kg once daily p.o., Bevacizumab 15 mg/kg twice weekly i.p.
Description: as §1, §2, §3, §4

[5] = system: MAXF 401 mammary cancer xenograft; assay: MAXF 401 patient-derived tumor xenograft efficacy in nude mice; format: in vivo, human; conditions: BI-1 13.6 mg/kg twice weekly i.p., BIBF1120 50 mg/kg once daily p.o., Bevacizumab 15 mg/kg twice weekly i.p.
Description: as §1, §2, §3, §4

[6] = system: OVXF 1353 ovarian cancer xenograft; assay: OVXF 1353 patient-derived tumor xenograft efficacy in nude mice; format: in vivo, human; conditions: BI-1 13.6 mg/kg twice weekly i.p., BIBF1120 50 mg/kg once daily p.o., Bevacizumab 15 mg/kg twice weekly i.p.
Description: as §1, §2, §3, §4

[7] = system: PAXF 546 pancreatic cancer xenograft; assay: PAXF 546 patient-derived tumor xenograft efficacy in nude mice; format: in vivo, human; conditions: BI-1 13.6 mg/kg twice weekly i.p., BIBF1120 50 mg/kg once daily p.o., Bevacizumab 15 mg/kg twice weekly i.p.
Description: as §1, §2, §3, §4

[8] = Body weight and deaths in PDX tumor-bearing nude mice; conditions: mouse, in vivo
Protocol: Mice were 5-7 week-old female Crl:NMRI-Foxn1^nu purchased from Charles River, Sulzfeld, Germany. After arrival, mice were allowed to adjust to ambient conditions for at least 5 days before they were used for the experiments. They were housed in individual ventilated Makrolon® type II long cages under standardized conditions at 25±1° C. temperatures and 55±10% humidity. Standardized diet (Teklad Global 19% Protein Extruded Diet (T.20195.12) from Harlan Laboratories) and sterile filtrated and acidified (pH 2.5) tap water were provided ad libitum. Ear clips were used to identify each mouse. Cage cards showing the study number, the animal identification number, the compound and dose level, the administration route as well as the schedule remained with the animals throughout the study.
Tumor diameters were measured twice weekly with a caliper. The volume of each tumor [in mm^3] was calculated according to the formula “tumor volume=length*diameter^2*0.5.” To monitor side effects of treatment, mice were inspected daily for abnormalities and body weight was determined twice weekly. Animals with tumor sizes exceeding 1.5 cm in diameter or 20% body weight loss were euthanized for ethical reasons.

[9] = system: RXF 1220 renal cancer xenograft; assay: RXF 1220 patient-derived tumor xenograft efficacy in nude mice; format: in vivo, human; conditions: BI-1 13.6 mg/kg twice weekly i.p., Sunitinib 40 mg/kg once daily, Bevacizumab 15 mg/kg twice weekly i.p.
Description: as §1
Sunitinib (Sutent®, Pfizer) tablets were ground with mortar and pestle and 108.48 mg powder (corresponding to 32 mg API; correction factor: 3.39) were dissolved in PBS (pH 5).
Tumor fragments were obtained from tumor xenografts in serial passage in nude mice. […] Mice were monitored daily. […]
as §3, §4

**Q.** With `COC(=O)c1ccc2c(c1)NC(=O)/C2=C(\Nc1ccc(N(C)C(=O)CN2CCN(C)CC2)cc1)c1ccccc1` [BIBF 1120] as the compound, how does the “median TGI (tumor growth inhibition)” value [1] read?
**A.** 75%

**Q.** What about the TGI [2] of the same compound?
**A.** 65%

**Q.** What about the TGI [3] of the same compound?
**A.** 40%

**Q.** And the TGI [4]?
**A.** 57%

**Q.** And the TGI [5]?
**A.** 63%

**Q.** And the TGI [6]?
**A.** 78%

**Q.** What about the TGI [7] of the same compound?
**A.** 69%

**Q.** What about the “maximum median body weight loss” value [8] of the same compound?
**A.** 5.9%

**Q.** With Bevacizumab as the compound, how does the “median TGI (tumor growth inhibition)” value [1] read?
**A.** 82%

**Q.** And the TGI [3]?
**A.** 37%

**Q.** And the TGI [4]?
**A.** 63%

**Q.** What about the TGI [5] of the same compound?
**A.** 68%

**Q.** What about the TGI [7] of the same compound?
**A.** 59%

**Q.** What about the “maximum median body weight loss” value [8] of the same compound?
**A.** 9.1%

**Q.** With `CCN(CC)CCNC(=O)c1c(C)[nH]c(/C=C2\C(=O)Nc3ccc(F)cc32)c1C` [Sunitinib] as the compound, how does the TGI [9] read?
**A.** 62%
